From US20260365682A1, “MODULATORS OF TNF-ALPHA ACTIVITY” (Forward Therapeutics, Inc., priority 2022, published 2026)

Target: T1, TNF-α (Homo sapiens, UniProt P01375)
T1 construct: purchased R&D 210-TA-020/CF
Experiment: TNF-α Induced HEK Blue Cellular Assay (secreted alkaline phosphatase expression, QUANTI-Blue)
Type: cell-based
Conditions: HEK Blue TNFα reporter cells; TNF-α 100 μg/ml; 24 hrs at 37° C.; inhibition of secreted alkaline phosphatase; read-out: IC50 value
Procedure: TNF-α Induced HEK Blue Cellular Assay
Test articles were diluted in DMSO and serially diluted into 384 well assay plate (Corning 3765), at final concentrations ranging from […] to 0.5 nM. HEK Blue™ TNFα reporter cells were added at a final density of 10,000 cell per well in assay media [DMEM (Gibco, cat #21063-029), 10% fetal bovine serum (ExcelBio, cat #FND500), 1% Penicillin-Streptomycin (Solarbio, cat #P1400-100]. TNF-α (R&D 210-TA-020/CF) was then added to the assay plate at a final concentration of […]. This plate was then incubated for 24 hrs at 37° C. and 5% CO2. Secreted alkaline phosphatase expression was then measured using QUANTI-Blue™ (Invivogen), according to manufacturer instructions and read on an Envision microplate reader at 620 nm.
Inhibition data for test compound over a range of concentration was plotted as percentage inhibition of the test compound (100%=maximum inhibition). IC50 values were determined after correcting for background [(sample read-mean of low control)/(mean of high control-mean of low control)] whereby the low control is DMSO without stimulation and high control is DMSO with stimulation. The IC50 is defined as the concentration of test compound which produces 50% inhibition and was quantified using the 4 parameter logistic equation to fit the data.

T1 sequence (P01375 77-233 limits assumed): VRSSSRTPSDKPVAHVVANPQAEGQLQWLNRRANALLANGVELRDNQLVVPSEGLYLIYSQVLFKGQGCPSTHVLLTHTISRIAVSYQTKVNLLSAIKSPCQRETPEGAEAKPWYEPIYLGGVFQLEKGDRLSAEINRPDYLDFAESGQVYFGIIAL

| Structure (SMILES) | IC50 [nM] |
| --- | --- |
| [2H]C([2H])([2H])N1C(=O)c2cccc(OC(F)F)c2[C@H]2C[C@@H]1c1nc3ccc(C#CC4CN(C5COC5)C4C)cc3n12 (single isomer, unassigned) [Example 258, (7R,14R)-1-(difluoromethoxy)-6-(methyl-d3)-11-(((2R or 2S)-2-methyl-1-(oxetan-3-yl)azetidin-3-yl)ethynyl)-6,7-dihydro-7,14-methanobenzo[f]benzo[4,5]imidazo[1,2-a][1,4]diazocin-5(14H)-one] | < 100 |
| CN1C(=O)c2cccc(OC(F)F)c2[C@H]2C[C@@H]1c1nc3ccc(C#Cc4cnn(C)c4)cc3n12 [Example 1, (1R,11R)-18-(difluoromethoxy)-12-methyl-5-[2-(1-methylpyrazol-4-yl)ethynyl]-2,9,12-triazapentacyclo[9.8.1.0^∧{2,10}.0^∧{3,8}. 0^∧{14,19}]icosa-3(8),4,6,9,14(19),15,17-heptaen-13-one] | < 100 |
| Cn1cc(C#Cc2ccc3nc4n(c3c2)[C@@H]2C[C@H]4NC(=O)c3cccc(OC(F)F)c32)cn1 [Example 2, (1R,11R)-18-(difluoromethoxy)-5-[2-(1-methylpyrazol-4-yl)ethynyl]-2,9,12-triazapentacyclo[9.8.1.0^∧{2,10}.0^∧{3,8}. 0^∧{14,19}]icosa-3(8),4,6,9,14(19),15,17-heptaen-13-one] | < 100 |
| O=C1N[C@@H]2C[C@H](c3c(OC(F)F)cccc31)n1c2nc2ccc(C#Cc3cncnc3)cc21 [Example 3, (1R,11R)-18-(difluoromethoxy)-5-[2-(pyrimidin-5-yl)ethynyl]-2,9,12-triazapentacyclo[9.8.1.0^∧{2,10}.0^∧{3,8}. 0^∧{14,19}]icosa-3(8),4,6,9,14(19),15,17-heptaen-13-one] | < 100 |
| CN1C(=O)c2cccc(OC(F)F)c2[C@H]2C[C@@H]1c1nc3ccc(C#Cc4cncnc4)cc3n12 [Example 4, (1R,11R)-18-(difluoromethoxy)-12-methyl-5-[2-(pyrimidin-5-yl)ethynyl]-2,9,12-triazapentacyclo[9.8.1.0^{2,10}.0^{3,8}.0^{14,19}]icosa-3(8),4,6,9,14(19),15,17-heptaen-13-one] | < 100 |
| CN1C(=O)c2cccc(OC(F)F)c2[C@H]2C[C@@H]1c1nc3ccc(C#Cc4cnn(CCO)c4)cc3n12 [Example 5, (1R,11R)-18-(difluoromethoxy)-5-{2-[1-(2-hydroxyethyl)pyrazol-4-yl]ethynyl}-12-methyl-2,9,12-triazapentacyclo[9.8.1.0^{2,10}.0^{3,8}.0^{14,19}]icosa-3(8),4,6,9,14(19),15,17-heptaen-13-one] | < 100 |
| O=C1N[C@@H]2C[C@H](c3c(OC(F)F)cccc31)n1c2nc2ccc(C#Cc3cnn(CCO)c3)cc21 [Example 6, (1R,11R)-18-(difluoromethoxy)-5-{2-[1-(2-hydroxyethyl)pyrazol-4-yl]ethynyl}-2,9,12-triazapentacyclo[9.8.1.0^{2,10}.0^{3,8}.0^{14,19}]icosa-3(8),4,6,9,14(19),15,17-heptaen-13-one] | < 100 |
| CCN1C(=O)c2cccc(OC(F)F)c2[C@H]2C[C@@H]1c1nc3ccc(C#Cc4cnn(C)c4)cc3n12 [Example 7, (1R,11R)-18-(difluoromethoxy)-12-ethyl-5-[2-(1-methylpyrazol-4-yl)ethynyl]-2,9,12-triazapentacyclo[9.8.1.0^{2,10}.0^{3,8}.0^{14,19}]icosa-3(8),4,6,9,14(19),15,17-heptaen-13-one] | < 100 |
| [2H]C([2H])([2H])N1C(=O)c2cccc(OC(F)F)c2[C@H]2C[C@@H]1c1nc3ccc(C#Cc4cnn(C)c4)cc3n12 [Example 8, (7R,14R)-1-(difluoromethoxy)-6-(methyl-d3)-11-((1-methyl-1H-pyrazol-4-yl)ethynyl)-6,7-dihydro-7,14-methanobenzo[f]benzo[4,5]imidazo[1,2-a][1,4]diazocin-5(14H)-one] | < 100 |
| CN1C(=O)c2cccc(OC(F)F)c2[C@H]2C[C@@H]1c1nc3ccc(C#Cc4cncn4C)cc3n12 [Example 9, (1R,11R)-18-(difluoromethoxy)-12-methyl-5-[2-(3-methylimidazol-4-yl)ethynyl]-2,9,12-triazapentacyclo[9.8.1.0^{2,10}.0^{3,8}.0^{14,19}]icosa-3(8),4,6,9,14(19),15,17-heptaen-13-one] | < 100 |
| [2H]C([2H])([2H])N1C(=O)c2cccc(OC(F)F)c2[C@H]2C[C@@H]1c1nc3ccc(C#Cc4cnn(CCO)c4)cc3n12 [Example 10, (7R,14R)-1-(difluoromethoxy)-11-((1-(2-hydroxyethyl)-1H-pyrazol-4-yl)ethynyl)-6-(methyl-d3)-6,7-dihydro-7,14-methanobenzo[f]benzo[4,5]imidazo[1,2-a][1,4]diazocin-5(14H)-one] | < 100 |
| [2H]C([2H])([2H])N1C(=O)c2cccc(OC(F)F)c2[C@H]2C[C@@H]1c1nc3ccc(C#Cc4cncnc4)cc3n12 [Example 11, (7R,14R)-1-(difluoromethoxy)-6-(methyl-d3)-11-(pyrimidin-5-ylethynyl)-6,7-dihydro-7,14-methanobenzo[f]benzo[4,5]imidazo[1,2-a][1,4]diazocin-5(14H)-one] | < 100 |
| [2H]C([2H])([2H])N1C(=O)c2cccc(OC(F)F)c2[C@H]2C[C@@H]1c1nc3ccc(C#Cc4cnnn4C)cc3n12 [Example 12, (7R,14R)-1-(difluoromethoxy)-6-(methyl-d3)-11-((1-methyl-1H-1,2,3-triazol-5-yl)ethynyl)-6,7-dihydro-7,14-methanobenzo[f]benzo[4,5]imidazo[1,2-a][1,4]diazocin-5(14H)-one] | 1000 to 10000 |
| [2H]C([2H])([2H])N1C(=O)c2cccc(OC(F)F)c2[C@H]2C[C@@H]1c1nc3ccc(C#Cc4ccnn4C)cc3n12 [Example 13, (7R,14R)-1-(difluoromethoxy)-6-(methyl-d3)-11-((1-methyl-1H-pyrazol-5-yl)ethynyl)-6,7-dihydro-7,14-methanobenzo[f]benzo[4,5]imidazo[1,2-a][1,4]diazocin-5(14H)-one] | < 100 |
| [2H]C([2H])([2H])N1C(=O)c2cccc(OC(F)F)c2[C@H]2C[C@@H]1c1nc3ccc(C#Cc4cn[nH]c4)cc3n12 [Example 14, (7R,14R)-11-((1H-pyrazol-4-yl)ethynyl)-1-(difluoromethoxy)-6-(methyl-d3)-6,7-dihydro-7,14-methanobenzo[f]benzo[4,5]imidazo[1,2-a][1,4]diazocin-5(14H)-one] | < 100 |
| [2H]C([2H])([2H])N1C(=O)c2cccc(OC(F)F)c2[C@H]2C[C@@H]1c1nc3ccc(C#Cc4cnn(CCN)c4)cc3n12 [Example 15, (7R,14R)-11-((1-(2-aminoethyl)-1H-pyrazol-4-yl)ethynyl)-1-(difluoromethoxy)-6-(methyl-d3)-6,7-dihydro-7,14-methanobenzo[f]benzo[4,5]imidazo[1,2-a][1,4]diazocin-5(14H)-one] | < 100 |
| [2H]C([2H])([2H])N1C(=O)c2cccc(OC(F)F)c2[C@H]2C[C@@H]1c1nc3ccc(C#Cc4cnc(C(C)(C)O)nc4)cc3n12 [Example 16, (7R,14R)-1-(difluoromethoxy)-11-((2-(2-hydroxypropan-2-yl)pyrimidin-5-yl)ethynyl)-6-(methyl-d3)-6,7-dihydro-7,14-methanobenzo[f]benzo[4,5]imidazo[1,2-a][1,4]diazocin-5(14H)-one] | < 100 |
